According to the SangsterLogP compilation:

SMILES	logP
O=C(O[C@@H]1Cc2c(O)cc(O)cc2O[C@@H]1c1cc(O)c(O)c(O)c1)c1cc(O)c(O)c(O)c1	1.08
O=c1c(O[C@@H]2O[C@H](CO)[C@@H](O)[C@H](O)[C@H]2O)c(-c2ccc(O)c(O)c2)oc2cc(O)cc(O)c12	0.7
COc1cc(O)c2c(=O)cc(C)oc2c1	1
O=C1OC[C@H]2OC(O)[C@@H]3OC(=O)c4cc(O)c(O)c(O)c4-c4c(cc(O)c(O)c4O)C(=O)O[C@H]3[C@@H]2OC(=O)c2cc(O)c(O)c(O)c2-c2c1cc(O)c(O)c2O (stereo not given in full)	-2.1
O=C(O[C@@H]1O[C@@H]2COC(=O)c3cc(O)c(O)c(O)c3-c3c(cc(O)c(O)c3O)C(=O)O[C@H]([C@H]1O)[C@@H]2O)c1cc(O)c(O)c(O)c1	-1.19
O=C(OCC1O[C@@H](O)C(O)(COC(=O)c2cc(O)c(O)c(O)c2)C1OC(=O)c1cc(O)c(O)c(O)c1)c1cc(O)c(O)c(O)c1 (stereo not given in full)	0.61
O=C(OCC1OC(OC(=O)c2cc(O)c(O)c(O)c2)C(O)C(O)C1O)c1cc(O)c(O)c(O)c1 (stereo not given)	-0.33
O=C(O[C@@H]1O[C@H](CO)[C@@H](O)[C@H](O)[C@H]1O)c1cc(O)c(O)c(O)c1	-1.89
O=C(O[C@H]1Cc2c(O)cc(O)cc2O[C@H]1c1ccc(O)c(O)c1)c1cc(O)c(O)c(O)c1	1.68
O=C(O[C@@H]1COC(=O)c2cc(O)c(O)c(O)c2-c2c(cc(O)c(O)c2O)C(=O)OC1[C@@H]1OC(=O)c2cc(O)c(O)c(O)c2-c2c(O)c(O)c(O)c3c2C(=O)O[C@H]1[C@H]3O)c1cc(O)c(O)c(O)c1 (stereo not given in full)	1.28
Oc1cc(O)c2c(c1)OC(c1ccc(O)c(O)c1)C(O)C2c1c(O)cc(O)c2c1O[C@H](c1ccc(O)c(O)c1)[C@@H](O)C2 (stereo in doubt)	-0.52
O=CC1OC(=O)c2cc(O)c(O)c(O)c2-c2c(cc(O)c(O)c2O)C(=O)OC1C1OC(=O)c2cc(O)c(O)c(O)c2-c2c(O)c(O)c3oc(=O)c4c(c(O)c(O)c5oc(=O)c2c3c54)-c2c(cc(O)c(O)c2O)C(=O)OCC1O (stereo not given)	-2.7
O=CC(O)(COC(=O)c1cc(O)c(O)c(O)c1)C(O)C(O)COC(=O)c1cc(O)c(O)c(O)c1 (stereo not given)	-0.35
O=C(O[C@@H]1O[C@@H]2COC(=O)c3cc(O)c(O)c(O)c3-c3c(cc(O)c(O)c3O)C(=O)O[C@H]2[C@@H]2OC(=O)c3cc(O)c(O)c(O)c3-c3c(cc(O)c(O)c3O)C(=O)O[C@@H]12)c1cc(O)c(O)c(O)c1	-1.07
O=C(OC[C@H]1OC(O)[C@@H]2OC(=O)c3cc(O)c(O)c(O)c3-c3c(cc(O)c(O)c3O)C(=O)O[C@H]2[C@@H]1OC(=O)c1cc(O)c(O)c(O)c1-c1c(O)c(O)c2oc(=O)c3cc(O)c(O)c4oc(=O)c1c2c43)c1cc(O)c(O)c(O)c1 (stereo not given in full)	-2.15
